Test results taken from a melting point compilation (Tetko et al.; mined from patent text by program, amines drawn as free bases though some values may be those of a salt).

| Structure (SMILES) | melting point [°C] |
| --- | --- |
| COc1cccc2c1C(=O)N1CCC[C@H]1C(=O)N2 | 247 to 251 |
| Cc1cc(Cc2cc(C)c(N=C=O)c(C)c2)cc(C)c1N=C=O | 130 to 131 |
| Nc1nc2c(s1)CCN(C/C=C\c1cccnc1)CC2 | 125 to 126 |
| C#CCN1CC(=O)Oc2cc(F)c(NN)cc21 | 146 |
| COCNC(=O)NC1CCCc2ccccc21 (stereo not given) | 124 to 128 |
| CCCCCc1ccc(-c2ncc(-c3ccc(O)cc3)cn2)cc1 | 152 to 153 |
| CCOC(=O)c1cnc(Cl)cc1Cl | 32 to 32.5 |
| O=C(O)CCC(=NO)c1ccc(-c2ccccc2F)cc1 | 150 to 152 |
| CSc1cc(C)nc(SC)c1NC(=O)CN1CCN(CCSc2nc3ccccc3o2)CC1 | 140 to 141 |
| CCOCc1nc2c(N)nc(C)c(C)c2n1CCCCS(=O)(=O)N(C)C | 158 to 160 |
| N[C@@H](C[C@@H](CC#Cc1ccccc1)C(=O)O)C(=O)O | 164 to 166 |
| CCCCP(=O)(O)CC(C)(O)CN (stereo not given) | 187 to 189 |
| O=C1COc2cc(SCc3ccc(O)cc3)ccc2N1 | 207 to 209 |
| CCN(CC)CCC(=O)Nc1ccc([N+](=O)[O-])cc1 | 86 to 88 |
| CCOc1ccc(/C=C/c2nc3c(c(=O)n(CC)c(=O)n3CC)n2C)cc1 | 185 to 186 |
| COc1ccc2c(c1)CNCCO2 | 96 to 97 |
| CC(=O)OCCN(C)Cc1cc(C(=O)c2cccs2)cc(C(C)(C)C)c1O | 124 to 126 |
| CC1c2ccccc2-c2cc(Br)ccc2N1S(=O)(=O)c1ccc(O)cc1 (stereo not given) | 201 to 203 |
| CC#CCOc1cc(Oc2cccc(C#N)c2)ncn1 | 121 |
| Cc1ccc2cccc(OCc3c(Cl)ccc(S(=O)(=O)NC(C)(C)C)c3Cl)c2n1 | 191 |
| CC(C)C[C@H](NC(=O)OCc1ccc(Cl)cc1)C(=O)N[C@@H](Cc1ccccc1)C(=O)CSCc1ccco1 | 123 to 124 |
| Cc1ccc2c(c1F)N(C1CC1)CNS2(=O)=O | 135 to 138 |
| Cc1nn(-c2ccccn2)c2[nH]c3ccc(N)cc3c(=O)c12 | 260 to 262 |
| NC(=S)Nc1ccc2ccccc2n1 | 179 to 180 |
| O=C1c2cc(F)ccc2C(=O)c2c1nc1ccccn21 | > 260 |

| Structure (SMILES) | melting point [°C] |
| --- | --- |
| CN(C)C1CCc2c(ccc(O)c2C(N)=O)C1 (stereo not given) | 65 to 66 |
| CCN1C(=O)C(C)(C)C(=O)N(C)c2cc(CCCN(CCn3ccc4occc4c3=O)Cc3cccnc3C)ccc21 | 151 to 155 |
| COC(=O)c1ccc(OC2=C(Oc3ccc(C(=O)OC)cc3)C(F)(F)C(F)(F)C2(F)F)cc1 | 67 |
| Cc1ccc(C(=O)O)c(NC(=O)C(F)(F)F)c1 | 178 to 180 |
| NC(=O)CCc1ccncc1 | 164 to 166 |
| C#CCCCOc1c(C)cc(C(=O)O)cc1C | 129 to 130 |
| COC(=S)c1ccc(-c2ccccc2)c(S(C)(=O)=O)c1 | 155 to 156 |
| COc1ccc(C2=NN(CCCCCCNC(=O)c3ccccc3C(N)=O)C(=O)[C@H]3CC=CC[C@@H]23)cc1OC (relative stereo) | 104 to 105 |
| Nc1ccc2c(c1)C(=O)N(CCO)C2=O | 171 to 173 |
| CCCCC(=O)Oc1ccc(-c2nc(-c3ccc(Cl)cc3)c(CC(=O)O)s2)cc1 | 197 to 199 |
| C[Si](C)(C)c1cc(Cl)sc1C(=O)NCCO | 110 to 114 |
| Cc1ccc2c(c1)C(=O)C(=O)N2CCN(C(C)C)C(C)C | 65 to 67 |
| CCOC(=O)C(=O)Nc1cc(NC(=O)C(=O)OCC)c(OC)nc1OC | 170 to 173 |
| CCCCc1nc2c(N)nc3ccccc3c2n1CCCCNC(=O)c1ccccc1 | 174 to 175 |
| N#Cc1cc2c(cc1F)S(=O)(=O)N=CN2C1CC1 | 205 to 207 |
| O=S(Cc1c(F)cccc1Cl)c1nc2cnccc2[nH]1 (stereo not given) | 180 to 183 |
| CSCc1nc(C)cc(O)n1 | 138 |
| C=C(C)CN(CC)c1nc(N2CCN(C(=O)NC(c3ccccc3)c3ccccc3)CC2)nc(N(CC)CC(=C)C)n1 | 178 to 180 |
| O=C(O)Cc1cc(F)cc(Cc2nc3c(F)c(F)cc(F)c3s2)c1 | 139 to 142 |
| C=CCCCSC1NN=C(c2ccncc2)N1c1ccccc1 (stereo not given) | 132 to 133 |
| Cc1c(C#N)ccc2nc(N)nc(N)c12 | > 270 |
| COc1ccc(S(=O)(=O)N2CCc3cccc(-c4ccc(C(F)(F)F)cc4)c32)cc1 | 180 to 181 |
| CC(C)C1CCC2(C(=O)O)CCC3(C)C(CCC4C5(C)CCC(O)C(C)(C)C5CCC43C)C12 (stereo not given) | 287 to 289 |
| Cc1noc(CN2CCC[C@@H](OCc3cc(C(F)(F)F)cc(C(F)(F)F)c3)[C@H]2c2ccccc2)n1 (relative stereo) | 85 to 86 |
| N#CC1(c2ccccc2)CCN(c2ccn(CC3CC3)c(=O)c2Cl)CC1 | 174 |

| Structure (SMILES) | melting point [°C] |
| --- | --- |
| Cn1nc(-c2ccc(F)cc2)c(-c2ccncc2)c1CCCc1ccccc1 | 83 to 87 |
| COC(=O)C1CC(=O)C(NC(C)=O)=C(O)C1 (stereo not given) | 131 to 132 |
| COc1ccc(NC(N)=S)nc1 | 131 to 135 |
| O=C(O)C(F)(F)c1cccc(OCc2ccccc2Cl)c1OCc1ccccc1Cl | 55 to 57 |
| CCCc1c(OCc2cccc(CC(=O)O)c2)ccc(C(C)=O)c1O | 156 to 158 |
| CCOC(=O)C1=C(COCc2ccc(CN(C)C)s2)NC(C)=C(C(=O)OC)C1c1ccccc1Cl (stereo not given) | 81 to 83 |
| Cc1[nH]cnc1/C=C/C(=O)c1cc2ccccc2s1 | 188 to 190 |
| CCc1nc2c(N)nc3ccccc3c2n1CCCSC | 210 to 212 |
| CCOCc1nc2c(N)nc(C)c(C)c2n1CCCON=C(C)C | 123 to 125 |
| Cc1c(C)c2c(c(C)c1OCc1ccccc1)C(=O)C(C)(C)O2 | 114 to 115 |
| CC(=O)Nc1cc2c(cc1C#N)[C@@H](N1CCCC1)[C@H](O)C(C)(C)O2 (relative stereo) | 175 to 176 |
| CNS(=O)(=O)c1ccc(Nc2cc(N3CCCCC3)cc(-c3ccc(F)cc3)n2)cc1 | 191 to 192 |
| O=C(Nc1ccc(S(=O)(=O)Oc2ccccc2)cc1[N+](=O)[O-])NS(=O)(=O)Cl | 190 |
| CC(C)(C)OC(=O)N(CCCCC(=O)c1cc2c3c(c1)CCN3C(=O)CC2)CCc1ccccc1O | 154 to 155 |
| CCOC(=O)COc1c(C(C)C)cc(C(O)(C(F)(F)F)C(F)(F)F)cc1C(C)C | 91 to 93 |
| Cc1ocnc1-c1cc(C(C)(C)C)c(O)c(C(C)(C)C)c1 | 105 to 107 |
| Cc1oc2c(C)c(C)c(NCc3ccc(F)cc3)c(C)c2c1-c1ccccc1 | 135 to 136 |
| CC1CC=CC2C(=O)OC(=O)C12 (stereo not given) | 55 |
| C#CCN(Cc1cc2c(=O)n(C)c(CN3CCC(O)CC3)nc2cc1Cl)c1ccc(C(=O)OC(C)(C)C)cc1 | 208 to 210 |
| COc1cc(C=CC(=O)c2c(OCC=C(C)C)ccc3c(C)cc(=O)oc23)cc(OC)c1OC | 148 to 150 |
| COc1cc(C(=O)NC2CC(C)(C)N(C)C(C)(C)C2)ccc1-c1nc2cc(Cl)c(Cl)cc2[nH]1 | 285 to 286 |
| Cc1c2c(c(Br)n1C)NC(=O)CN=C2c1ccccc1 | 200 to 202 |
| CN1CC[C@@H](c2c(O)cc(O)c3c(=O)cc(-c4ccc(N)cc4Br)oc23)[C@@H]1CO | 208 |
| CCC(C)(C)c1cc(-c2cc(F)cc(C=C3SC(N4CCOCC4)=NC3=O)c2)ccc1O | 210 to 212 |
| CCOC(=O)c1cc2c(nc1CCl)CCCCC2 | 81 to 82 |

| Structure (SMILES) | melting point [°C] |
| --- | --- |
| ClCc1cc2ccccc2nc1I | 138 to 140 |
| CC(=O)NC[C@H]1CN(c2ccc(N3CCN(C(=O)CCC(=O)c4ccc(Br)cc4)CC3)c(F)c2)C(=O)O1 | 197 to 198 |
| O=CCC1Cc2cc(Cl)c(Cl)cc2C1=O (racemic) | 93 to 96 |
| CCCCN=C1SC(=CC(=O)O)C(=O)N1CCCC | 99 to 101 |
| Cn1c([N+](=O)[O-])cnc1COc1ccc(C(F)(F)F)cc1[N+](=O)[O-] | 126 |
| O=C(O)COc1cc(Cl)ccc1C(=O)NCc1c(F)cccc1F | 188 to 190 |
| CNC(=O)CC1CN=C(c2cc3cc(Oc4ccc(S(C)(=O)=O)nc4)c(F)c(OCCOC)c3[nH]2)S1 (stereo not given) | 151 to 152 |
| O=C(CCC(F)(F)F)Oc1cc(=O)n(-c2ccccc2)c2ncccc12 | 193 to 195 |
| CN(C)c1ccc(C(=O)c2ccc(O)cc2)cc1 | 199 to 200 |
| CN(C)c1ccc2c(c1)C(=O)C(n1ccnc1)CC2 (stereo not given) | 160 to 162 |
| COc1ccc(NC(C)c2oc3ccc(F)cc3c(=O)c2-c2cccc(F)c2)cc1 (stereo not given) | 152 to 156 |
| CC(C)c1nc(CN=[N+]=[N-])n(Cc2cccnc2)c1Sc1cc(Cl)cc(Cl)c1 | 99 to 103 |
| O=CC1C(=O)CCC(c2ccccc2)(c2ccccc2)C1C[N+](=O)[O-] (stereo not given) | 188 |
| Nn1c(C(F)(F)F)cc(-c2ccc(C(F)(F)F)cc2)cc1=O | 125 |
| OCC1CC(O)C(n2c(NC3CC3)nc3cc(Cl)c(Cl)cc32)C1 (stereo not given) | 251 to 253 |
| O=S(=O)(Nc1ccc2c(OCc3csc(-c4ccc(OC(F)(F)F)cc4)n3)cccc2c1)C(F)(F)F | 131 to 132 |
| COC(=O)c1cc(C(=O)O)cc(-n2cccc2)c1 | 178 to 179 |
| COC(=O)c1cc2cc(OC)c(OC)cc2cn1 | 215 |
| CC1CC(=O)NN=C1c1ccc(N2CCN(C#N)CC2)c([N+](=O)[O-])c1 (stereo not given) | 247 to 248 |
| N#Cc1cccc(C2C(=O)c3ccccc3C2=O)c1 | 179 to 182 |
| COc1cc2cc(C(=O)N3CC(CCl)c4c3cc(NC(=O)OCc3ccc([N+](=O)[O-])cc3)c3ccccc43)[nH]c2c(OC)c1OC (stereo not given) | 191 to 192 |
| O=C(O)CCCOc1ccc(C(=O)c2ccc(F)cc2)cc1 | 109 to 111 |
| COc1ccccc1CN[C@H]1CCCN(CCCCCCc2ccccc2)[C@H]1c1ccccc1 (relative stereo) | 48 to 53 |
| CCCCc1nc(C(F)(F)F)c(CO)n1Cc1ccc(-c2ccccc2C(=O)O)cc1 | 198 to 200 |
| Cc1ccc(CC(C(=O)NC(Cc2ccc(C#N)cc2)C(=O)N(C)C)S(=O)(=O)Nc2cccc3ccccc23)c(C)c1 (stereo not given) | 140 |
